Among the data in patent US20130178469A1, “NOVEL ANTIVIRAL AGENTS” (SHANGHAI INSTITUTE OF ORGANIC CHEMISTRY (SIOC), priority 2010, published 2013) are EC50 values, retold here.

The experiment has as its system HIV-1. Put plainly: Luciferase Assay with single-round reporter virus (NLXLuc or HIV-Luc). The experiment is classed as cell-based. The settings on record: Human immunodeficiency virus 1. From the text:
Infectivity assays using reporter viruses derived from lentiviral vectors capable of a single round of infection were used to determine the activity (EC50) of compounds. The DNA used to generate viruses for infection was the full-length HIV-1 genome which had been envelope-deleted. In addition, a reporter gene (the firefly luciferase gene from Photinus pyralis) was cloned into the nefregion of the HIV backbone for ease of assay readout. […]. Culture supernatants containing VSV-G pseudotyped virions were harvested 64 h post transfection, clarified by centrifugation to remove cell debris, and frozen at −70° C. until use.
293FT cells were plated out at 12000 cells per well in CellView 96-well cell culture plates (Invitrogen) 16 h prior to compound addition. Compounds were preincubated with cells for 4 h at 37° C. prior to the addition of virus sufficient to generate approximately 10000 Luciferase light units (as measured by the Victor Wallace luminometer) upon assaying using the Bright-Glo™ reagent (Promega) according to the manufacturer's instructions at 48 h post infection.
In the tables below, this assay is referred to as NLXLuc or HIV-Luc.
Broadly, the EC50 is the concentration that produces a half-maximal response. The low end stands for higher potency in that assay, the high end for lower potency in that assay. Compound `CN1CCN(c2cc(N3CCCOC3=O)c3nc(C(=O)NCc4ccc(F)cc4)c(O)c(=O)n3c2)CC1` [Example 1.4, N-(4-fluorobenzyl)-3-hydroxy-7-(4-methylpiperazin-1-yl)-4-oxo-9-(2-oxo-1,3-oxazinan-3-yl)-4H-pyrido[1,2-a]pyrimidine-2-carboxamide] registered an EC50 of 100 to 1000 nM.
To `CN1CCN(c2cc(N3CCCC3=O)c3nc(C(=O)NCc4ccc(F)cc4)c(O)c(=O)n3c2)CC1` [Example 2.4, 3-Hydroxy-7-(4-methyl-piperazin-1-yl)-4-oxo-9-(2-oxo-pyrrolidin-1-yl)-4H-pyrido[1,2-a]pyrimidine-2-carboxylic acid 4-fluoro-benzylamide] belongs 100 to 1000 nM.
`O=C(NCc1ccc(F)cc1)c1nc2c(N3CCNCC3=O)cc(N3CCCC3)cn2c(=O)c1O` [Example 4.4, 3-Hydroxy-4-oxo-9-(2-oxo-piperazin-1-yl)-7-pyrrolidin-1-yl-4H-pyrido[1,2-a]pyrimidine-2-carboxylic acid 4-fluoro-benzylamide]: the concentration giving a half-maximal response (EC50) was 100 to 1000 nM.
Compound `CN1CCN(c2cc(N(C)S(C)(=O)=O)c3nc(C(=O)NCc4ccc(F)cc4)c(O)c(=O)n3c2)CC1` [Example 5.4, 3-Hydroxy-9-(methanesulfonyl-methyl-amino)-7-(4-methyl-piperazin-1-yl)-4-oxo-4H-pyrido[1,2-a]pyrimidine-2-carboxylic acid 4-fluoro-benzylamide] came in with an EC50 of 10 to 20 nM.
Compound `CC(C)N1CCN(c2cc(N(C)S(C)(=O)=O)c3nc(C(=O)NCc4ccc(F)cc4)c(O)c(=O)n3c2)CC1` [Example 6.3, Trifluoro-acetate4-[2-(4-fluoro-benzylcarbamoyl)-3-hydroxy-9-(methanesulfonyl-methyl-amino)-4-oxo-4H-pyrido[1,2-a]pyrimidin-7-yl]-1-isopropyl-piperazin-1-ium] came in with an EC50 of 10 to 20 nM.
`CN(C)c1cc(N2CCOC2=O)c2nc(C(=O)NCc3ccc(F)cc3)c(O)c(=O)n2c1` [Example 7.3, 7-(dimethylamino)-N-(4-fluorobenzyl)-3-hydroxy-4-oxo-9-(2-oxooxazolidin-3-yl)-4H-pyrido[1,2-a]pyrimidine-2-carboxamide] showed an EC50 of 100 to 1000 nM.
For `CN(C)c1cc(N2CCCOC2=O)c2nc(C(=O)NCc3ccc(F)cc3)c(O)c(=O)n2c1` [Example 8.3, 7-(dimethylamino)-N-(4-fluorobenzyl)-3-hydroxy-4-oxo-9-(2-oxo-1,3-oxazinan-3-yl)-4H-pyrido[1,2-a]pyrimidine-2-carboxamide], the EC50 lay within 20 to 100 nM.
Then `CN(C)c1cc(N2CCNCC2=O)c2nc(C(=O)NCc3ccc(F)cc3)c(O)c(=O)n2c1` [Example 9.3, 7-(dimethylamino)-N-(4-fluorobenzyl)-3-hydroxy-4-oxo-9-(2-oxopiperazin-1-yl)-4H-pyrido[1,2-a]pyrimidine-2-carboxamide], with 100 to 1000 nM; and `O=C(NCc1ccc(F)cc1)c1nc2c(N3CCNCC3=O)cc(N3CCOCC3)cn2c(=O)c1O` [Example 10.3, N-(4-fluorobenzyl)-3-hydroxy-7-morpholino-4-oxo-9-(2-oxopiperazin-1-yl)-4H-pyrido[1,2-a]pyrimidine-2-carboxamide], with 100 to 1000 nM; and `CC1COCCN1c1cc(N2CCNCC2=O)c2nc(C(=O)NCc3ccc(F)cc3)c(O)c(=O)n2c1` (stereo not drawn) [Example 11.3, N-(4-fluorobenzyl)-3-hydroxy-7-(3-methylmorpholino)-4-oxo-9-(2-oxopiperazin-1-yl)-4H-pyrido[1,2-a]pyrimidine-2-carboxamide], with 100 to 1000 nM.
Take `O=C(NCc1ccc(F)cc1)c1nc2c(N3CCNCC3=O)cc(N3CCCCC3)cn2c(=O)c1O` [Example 12.3, 3-Hydroxy-4-oxo-9-(2-oxo-piperazin-1-yl)-7-piperidin-1-yl-4H-pyrido[1,2-a]pyrimidine-2-carboxylic acid 4-fluoro-benzylamide]: the EC50 lay within 20 to 100 nM.
Consider `CN(CC1CC1)c1cc(N2CCNCC2=O)c2nc(C(=O)NCc3ccc(F)cc3)c(O)c(=O)n2c1` [Example 13.4, 7-(Cyclopropylmethyl-methyl-amino)-3-hydroxy-4-oxo-9-(2-oxo-piperazin-1-yl)-4H-pyrido[1,2-a]pyrimidine-2-carboxylic acid 4-fluoro-benzylamide], for which the EC50 was 20 to 100 nM.
Compound `CN1CCN(c2cc(N3CCNCC3=O)c3nc(C(=O)NCc4ccc(F)cc4)c(O)c(=O)n3c2)CC1` [Example 14.3, 3-Hydroxy-7-(4-methyl-piperazin-1-yl)-4-oxo-9-(2-oxo-piperazin-1-yl)-4H-pyrido[1,2-a]pyrimidine-2-carboxylic acid 4-fluoro-benzylamide] displayed an EC50 of 100 to 1000 nM.
Regarding `O=C(NCc1ccc(F)cc1)c1nc2c(N3CCNCC3=O)cc(N3CCNCC3)cn2c(=O)c1O` [Example 15.3, 3-Hydroxy-4-oxo-9-(2-oxo-piperazin-1-yl)-7-piperazin-1-yl-4H-pyrido[1,2-a]pyrimidine-2-carboxylic acid 4-fluoro-benzylamide], the EC50 lay in the range of 100 to 1000 nM.
In turn, `CN1CCN(c2cc(N3CCOCC3)cn3c(=O)c(O)c(C(=O)NCc4ccc(F)cc4)nc23)C(=O)C1` [Example 16.4, 3-Hydroxy-9-(4-methyl-2-oxo-piperazin-1-yl)-7-morpholin-4-yl-4-oxo-4H-pyrido[1,2-a]pyrimidine-2-carboxylic acid 4-fluoro-benzylamide] returned an EC50 of 20 to 100 nM.
To `CC(C)N1CCN(c2cc(N3CCN(C)CC3)cn3c(=O)c(O)c(C(=O)NCc4ccc(F)cc4)nc23)C1=O` [Example 17.4, 3-Hydroxy-9-(3-isopropyl-2-oxo-imidazolidin-1-yl)-7-(4-methyl-piperazin-1-yl)-4-oxo-4H-pyrido[1,2-a]pyrimidine-2-carboxylic acid 4-fluoro-benzylamide] belongs 20 to 100 nM; to `CN1CCN(c2cc(N3CCCCC3=O)c3nc(C(=O)NCc4ccc(F)cc4)c(O)c(=O)n3c2)CC1` [Example 18.4, 3-Hydroxy-7-(4-methyl-piperazin-1-yl)-4-oxo-9-(2-oxo-piperidin-1-yl)-4H-pyrido[1,2-a]pyrimidine-2-carboxylic acid 4-fluoro-benzylamide], 20 to 100 nM.
Regarding `O=C(NCc1ccc(F)cc1)c1nc2c(N3CCOC3=O)cc(N3CCNCC3)cn2c(=O)c1O` [Example 19.4, 3-Hydroxy-4-oxo-9-(2-oxo-oxazolidin-3-yl)-7-piperazin-1-yl-4H-pyrido[1,2-a]pyrimidine-2-carboxylic acid 4-fluoro-benzylamide], the EC50 is > 1000 nM.
The compound `CN1CCN(c2cc(N3CCOC3=O)c3nc(C(=O)NCc4ccc(F)cc4)c(O)c(=O)n3c2)CC1` [Example 20.4, 3-Hydroxy-7-(4-methyl-piperazin-1-yl)-4-oxo-9-(2-oxo-oxazolidin-3-yl)-4H-pyrido[1,2-a]pyrimidine-2-carboxylic acid 4-fluoro-benzylamide] showed an EC50 of 20 to 100 nM.
`O=C(NCc1ccc(F)cc1)c1nc2c(N3CCOCC3)cc(N3CCOCC3)cn2c(=O)c1O` [Example 21.5, N-(4-fluorobenzyl)-3-hydroxy-7,9-dimorpholino-4-oxo-4H-pyrido[1,2-a]pyrimidine-2-carboxamide] had a concentration giving a half-maximal response (EC50) of 100 to 1000 nM.
Take `CN1CCN(c2cc(N3CCOCC3)cn3c(=O)c(O)c(C(=O)NCc4ccc(F)cc4)nc23)C1=O` [Example 29.2, N-(4-fluorobenzyl)-3-hydroxy-9-(3-methyl-2-oxoimidazolidin-1-yl)-7-morpholino-4-oxo-4H-pyrido[1,2-a]pyrimidine-2-carboxamide]: the 50% effective concentration (EC50) is 20 to 100 nM.
